Measured values taken from the supplement of paper PMC10307832.

Legend:
Assay in all cases: relative viability (nuclei count vs DMSO), 5 days (fraction); higher = more cells survive
NCI-H522 = test system: NCI-H522
Procedure, shortened: (§1)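 Lung cancer cell lines were pin-tool dosed in 1536-well plates on the day after seeding, with either a lone drug or a fixed anchor-drug dose plus five library-drug doses (not always all listed) in √10 steps. Nuclei were counted on 4× images after 5 days. Relative viability is the ratio of treated-well to vehicle-well nuclei counts, with each value a median of duplicate plates.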

NCI-H1734 = test system: NCI-H1734
Procedure, shortened: as §1

LU99A = test system: LU99A
Procedure, shortened: as §1

NCI-H1648 = test system: NCI-H1648
Procedure, shortened: as §1

NCI-H1944 = test system: NCI-H1944
Procedure, shortened: as §1

BEN = test system: BEN
Procedure, shortened: as §1

201T = test system: 201T
Procedure, shortened: as §1

HARA = test system: HARA
Procedure, shortened: as §1

NCI-H2342 = test system: NCI-H2342
Procedure, shortened: as §1

EKVX = test system: EKVX
Procedure, shortened: as §1

NCI-H1993 = test system: NCI-H1993
Procedure, shortened: as §1

HCC-366 = test system: HCC-366
Procedure, shortened: as §1

LXF-289 = test system: LXF-289
Procedure, shortened: as §1

NCI-H596 = test system: NCI-H596
Procedure, shortened: as §1

HCC-78 = test system: HCC-78
Procedure, shortened: as §1

NCI-H1703 = test system: NCI-H1703
Procedure, shortened: as §1

NCI-H1975 = test system: NCI-H1975
Procedure, shortened: as §1

NCI-H3122 = test system: NCI-H3122
Procedure, shortened: as §1

HCC-827 = test system: HCC-827
Procedure, shortened: as §1

HCC-15 = test system: HCC-15
Procedure, shortened: as §1

NCI-H1755 = test system: NCI-H1755
Procedure, shortened: as §1

## CCCCCCCCCCCC1=C(O)C(=O)C=C(O)C1=O [Embelin] + NC(=O)Nc1cc(-c2cccc(F)c2)sc1C(=O)N[C@H]1CCCNC1 [AZD7762] (partner 0.2 µM)
NCI-H522; first compound 0.08 µM
  relative viability: 0.865
NCI-H522; first compound 0.8 µM
  relative viability: 1.05
NCI-H522; first compound 2.53 µM
  relative viability: 0.91
NCI-H522; first compound 8 µM
  relative viability: 0.756
NCI-H1734; first compound 0.08 µM
  relative viability: 0.587
NCI-H1734; first compound 0.8 µM
  relative viability: 0.692
NCI-H1734; first compound 2.53 µM
  relative viability: 0.593
NCI-H1734; first compound 8 µM
  relative viability: 0.622
LU99A; first compound 0.08 µM
  relative viability: 0.335
LU99A; first compound 0.8 µM
  relative viability: 0.4
LU99A; first compound 2.53 µM
  relative viability: 0.372
LU99A; first compound 8 µM
  relative viability: 0.233
NCI-H1648; first compound 0.08 µM
  relative viability: 0.598
NCI-H1648; first compound 0.8 µM
  relative viability: 0.689
NCI-H1648; first compound 2.53 µM
  relative viability: 0.628
NCI-H1648; first compound 8 µM
  relative viability: 0.709
NCI-H1944; first compound 0.08 µM
  relative viability: 0.449
NCI-H1944; first compound 0.8 µM
  relative viability: 0.566
NCI-H1944; first compound 2.53 µM
  relative viability: 0.526
NCI-H1944; first compound 8 µM
  relative viability: 0.436
BEN; first compound 0.08 µM
  relative viability: 0.63
BEN; first compound 0.8 µM
  relative viability: 0.765
BEN; first compound 2.53 µM
  relative viability: 0.716
BEN; first compound 8 µM
  relative viability: 0.542
201T; first compound 0.08 µM
  relative viability: 0.713
201T; first compound 0.8 µM
  relative viability: 0.634
201T; first compound 2.53 µM
  relative viability: 0.67
201T; first compound 8 µM
  relative viability: 0.61
HARA; first compound 0.08 µM
  relative viability: 0.37
HARA; first compound 0.8 µM
  relative viability: 0.455
HARA; first compound 2.53 µM
  relative viability: 0.52
HARA; first compound 8 µM
  relative viability: 0.362
NCI-H2342; first compound 0.08 µM
  relative viability: 0.47
NCI-H2342; first compound 0.8 µM
  relative viability: 0.514
NCI-H2342; first compound 2.53 µM
  relative viability: 0.546
NCI-H2342; first compound 8 µM
  relative viability: 0.456
EKVX; first compound 0.08 µM
  relative viability: 0.698
EKVX; first compound 0.8 µM
  relative viability: 0.748
EKVX; first compound 2.53 µM
  relative viability: 0.662
EKVX; first compound 8 µM
  relative viability: 0.749
NCI-H1993; first compound 0.08 µM
  relative viability: 0.821
NCI-H1993; first compound 0.8 µM
  relative viability: 0.723
NCI-H1993; first compound 2.53 µM
  relative viability: 0.89
NCI-H1993; first compound 8 µM
  relative viability: 0.606
HCC-366; first compound 0.08 µM
  relative viability: 0.317
HCC-366; first compound 0.8 µM
  relative viability: 0.314
HCC-366; first compound 2.53 µM
  relative viability: 0.291
HCC-366; first compound 8 µM
  relative viability: 0.281
LXF-289; first compound 0.08 µM
  relative viability: 1.17
LXF-289; first compound 0.8 µM
  relative viability: 1.16
LXF-289; first compound 2.53 µM
  relative viability: 1.14
LXF-289; first compound 8 µM
  relative viability: 1.2
NCI-H596; first compound 0.08 µM
  relative viability: 1.08
NCI-H596; first compound 0.8 µM
  relative viability: 1.27
NCI-H596; first compound 2.53 µM
  relative viability: 1.26
NCI-H596; first compound 8 µM
  relative viability: 1.01
HCC-78; first compound 0.08 µM
  relative viability: 0.555
HCC-78; first compound 0.8 µM
  relative viability: 0.773
HCC-78; first compound 2.53 µM
  relative viability: 0.661
HCC-78; first compound 8 µM
  relative viability: 0.647
NCI-H1703; first compound 0.08 µM
  relative viability: 0.132
NCI-H1703; first compound 0.8 µM
  relative viability: 0.166
NCI-H1703; first compound 2.53 µM
  relative viability: 0.131
NCI-H1703; first compound 8 µM
  relative viability: 0.143
NCI-H1975; first compound 0.08 µM
  relative viability: 0.708
NCI-H1975; first compound 0.8 µM
  relative viability: 0.753
NCI-H1975; first compound 2.53 µM
  relative viability: 0.806
NCI-H1975; first compound 8 µM
  relative viability: 0.703
NCI-H3122; first compound 0.08 µM
  relative viability: 0.946
NCI-H3122; first compound 0.8 µM
  relative viability: 1.06
NCI-H3122; first compound 2.53 µM
  relative viability: 1.06
NCI-H3122; first compound 8 µM
  relative viability: 1.01
HCC-827; first compound 0.08 µM
  relative viability: 0.191
HCC-827; first compound 0.8 µM
  relative viability: 0.21
HCC-827; first compound 2.53 µM
  relative viability: 0.193
HCC-827; first compound 8 µM
  relative viability: 0.278
HCC-15; first compound 0.08 µM
  relative viability: 1.14
HCC-15; first compound 0.8 µM
  relative viability: 1.15
HCC-15; first compound 2.53 µM
  relative viability: 1.46
HCC-15; first compound 8 µM
  relative viability: 1.41
NCI-H1755; first compound 0.08 µM
  relative viability: 0.432
NCI-H1755; first compound 0.8 µM
  relative viability: 0.477
NCI-H1755; first compound 2.53 µM
  relative viability: 0.45
NCI-H1755; first compound 8 µM
  relative viability: 0.429
